Laboratory results from PubChem BioAssay (NCI).
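Compound exposure: 48 hours, 5 concentrations, 96-well plates. TGI denotes the concentration required for complete inhibition of growth.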

Tests used:
Test in all cases: NCI tumour cell line growth inhibition, 48 h
HOP-18 NSCLC = system: HOP-18 NSCLC
SN12K1 renal = system: SN12K1 renal
P388/ADR leukemia = system: P388/ADR leukemia

Work on `CCOC(=O)C1=C(C)N(NC(N)=O)C2(O)CCCC(=O)C12C` (stereo not given) yielded a TGI (HOP-18 NSCLC) greater than 100 µM.

In the case of `CCCCS(=O)(=O)Nc1ccc(Nc2c3ccccc3nc3ccccc23)c(OC)c1`, the TGI (SN12K1 renal) is reported as 3.55 µM, the TGI (HOP-18 NSCLC) is reported as 19.8 µM and the TGI (P388/ADR leukemia) is reported as 2.88 µM.

Compound `O=C1OCc2cccc3c2-c2c1cccc2C(=O)OC3` has a TGI (HOP-18 NSCLC) greater than 100 µM.
